Results reported in ChEMBL document CHEMBL1122370 (J Med Chem, 1983).

Assays:
L1210 [1] = assay: In vivo antitumor activity against L1210 leukemia in 5 mice measured as median survival range at 20 mg/kg; Value ranges from(12-13); format: functional, Mus musculus
L1210 [2] = assay: In vivo antitumor activity against L1210 leukemia in 5 mice measured as Increased life span at 80 mg/kg.; format: functional; details: Mus musculus
Mus musculus [3] = assay: Average weight of the mouse after treating with 40 mg/kg dose for 1 day.; format: functional; parameters: unit not given here
Mus musculus [4] = assay: Average weight of the mouse after treating with 40 mg/kg dose for 7 days.; format: functional; parameters: unit not given beside the values
L1210 [5] = assay: In vivo antitumor activity against L1210 leukemia in 13 mice measured as T/C values(days); T/C = 13/9; format: functional, Mus musculus
L1210 [6] = assay: In vivo antitumor activity against L1210 leukemia in 15 mice measured as T/C values(days); T/C = 15/9; format: functional, Mus musculus
L1210 [7] = assay: In vivo antitumor activity against L1210 leukemia in 5 mice measured as Increased life span at 40 mg/kg.; format: functional; details: Mus musculus
Mus musculus [8] = assay: Average weight of the mouse after treating with 80 mg/kg dose for 7 days.; format: functional; parameters: unit not given beside the values
Mus musculus [9] = assay: Average weight of the mouse after treating with 20 mg/kg dose for 7 days.; format: functional; parameters: unit not given beside the values
L1210 [10] = assay: In vivo antitumor activity against L1210 leukemia in 5 mice measured as median survival range at 80 mg/kg; Value ranges from(13-26).; format: functional, Mus musculus
Mus musculus [11] = assay: Average weight of the mouse after treating with 20 mg/kg dose for 1 day.; format: functional; parameters: unit not given here
Mus musculus [12] = assay: Average weight of the mouse after treating with 80 mg/kg dose for 1 day.; format: functional; parameters: unit not given here
L1210 [13] = assay: In vivo antitumor activity against L1210 leukemia in 5 mice measured as Increased life span at 20 mg/kg.; format: functional; details: Mus musculus
L1210 [14] = assay: In vivo antitumor activity against L1210 leukemia in 18 mice measured as T/C values(days); T/C = 18/9; format: functional, Mus musculus
L1210 [15] = assay: In vivo antitumor activity against L1210 leukemia in 5 mice measured as median survival range at 40 mg/kg; Value ranges from(13-19).; format: functional, Mus musculus
L1210 [16] = assay: In vivo antitumor activity against L1210 leukemia in 5 mice measured as median survival range at 80 mg/kg; Value ranges from(12-23).; format: functional, Mus musculus
L1210 [17] = assay: In vivo antitumor activity against L1210 leukemia in 19 mice measured as T/C values(days); T/C = 19/9; format: functional, Mus musculus
L1210 [18] = assay: In vivo antitumor activity against L1210 leukemia in 5 mice measured as median survival range at 40 mg/kg; Value ranges from(12-18); format: functional, Mus musculus
L1210 [19] = assay: In vivo antitumor activity against L1210 leukemia in 5 mice measured as median survival range at 40 mg/kg; Value ranges from (16-19); format: functional, Mus musculus
L1210 [20] = assay: In vivo anti tumor activity against L1210 leukemia in 5 mice measured as Increased life span at 40 mg/kg.; format: functional; details: Mus musculus
L1210 [21] = assay: In vivo anti tumor activity against L1210 leukemia in 19 mice measured as T/C values; T/C = 19/9; format: functional, Mus musculus
Mus musculus [22] = assay: Average weight change in mouse after treating with 20 mg/kg dose for 7 days.; format: functional; parameters: unit not given beside the values
L1210 [23] = assay: In vivo antitumor activity against L1210 leukemia in 5 mice measured as median survival range at 20 mg/kg; Value ranges from (11-17); format: functional, Mus musculus
L1210 [24] = assay: In vivo anti tumor activity against L1210 leukemia in 13 mice measured as T/C values at 20 mg/kg; T/C = 13/9; format: functional, Mus musculus
Mus musculus [25] = assay: Average weight change in mouse after treating with 40 mg/kg dose for 7 days.; format: functional
L1210 [26] = assay: In vivo anti tumor activity against L1210 leukemia in 5 mice measured as Increased life span at 20 mg/kg.; format: functional; details: Mus musculus
L1210 [27] = assay: In vivo antitumor activity against L1210 leukemia in 16 mice measured as T/C values; T/C = 16/9; format: functional, Mus musculus
Mus musculus [28] = assay: Average weight of the mouse after treating with 60 mg/kg dose for 1 day.; format: functional
Mus musculus [29] = assay: Average weight of the mouse after treating with 15 mg/kg dose for 7 days.; format: functional
Mus musculus [30] = assay: Average weight of the mouse after treating with 15 mg/kg dose for 1 day.; format: functional
Mus musculus [31] = assay: Average weight of the mouse after treating with 30 mg/kg dose for 7 days.; format: functional
L1210 [32] = assay: In vivo anti tumor activity against L1210 leukemia in 10 mice measured as Increased life span at 30 mg/kg.; format: functional; details: Mus musculus
L1210 [33] = assay: In vivo anti tumor activity against L1210 leukemia in 10 mice measured as median survival range at 30 mg/kg; Value ranges from(11-17).; format: functional, Mus musculus
L1210 [34] = assay: In vivo anti tumor activity against L1210 leukemia in 5 mice measured as Increased life span.; format: functional, Mus musculus
Mus musculus [35] = assay: Average weight of the mouse after treating with 60 mg/kg dose for 7 days.; format: functional
Mus musculus [36] = assay: Average weight of the mouse after treating with 30 mg/kg dose for 1 day.; format: functional
L1210 [37] = assay: In vivo anti tumor activity against L1210 leukemia in 10 mice measured as median survival range at 60 mg/kg; Value ranges from(7-24); format: functional, Mus musculus
L1210 [38] = assay: In vivo antitumor activity against L1210 leukemia in 10 mice measured as median survival range at 15 mg/kg; Value ranges from(15-20); format: functional, Mus musculus
L1210 [39] = assay: In vivo anti tumor activity against L1210 leukemia in 10 mice measured as Increased life span at 60 mg/kg.; format: functional; details: Mus musculus
L1210 [40] = assay: In vivo anti tumor activity against L1210 leukemia in 23 mice measured as median survival range at 30 mg/kg; Value ranges from(14-23).; format: functional, Mus musculus
L1210 [41] = assay: In vivo antitumor activity against L1210 leukemia in 23 mice measured as Increased life span.; format: functional, Mus musculus
L1210 [42] = assay: In vivo antitumor activity against L1210 leukemia in 17 mice measured as T/C values(days); T/C = 17/9; format: functional, Mus musculus
L1210 [43] = assay: In vivo antitumor activity against L1210 leukemia in 19 mice measured as median survival range at 15 mg/kg; Value ranges from(13-22); format: functional, Mus musculus
L1210 [44] = assay: In vivo anti tumor activity against L1210 leukemia in 19 mice measured as median survival range at 60 mg/kg; Value ranges from(9-28); format: functional, Mus musculus
L1210 [45] = assay: (§1) In vivo antitumor activity against L1210 leukemia in 19 mice measured as Increased life span.; format: functional, Mus musculus
L1210 [46] = assay: In vivo antitumor activity against L1210 leukemia in 16 mice measured as T/C values(days); T/C = 16/9; format: functional, Mus musculus
L1210 [47] = assay: as §1; format: functional, Mus musculus; remark: listed apart in the source

CC(C)CCOC(=O)CCC(NC(=O)c1cc(Cl)c(N(C)Cc2cnc3nc(N)nc(N)c3n2)c(Cl)c1)C(=O)OCCC(C)C (stereo not given)
Range (L1210 [1]): 13
ILS at 80 mg/kg (L1210 [2]): 100%
Average weight (Mus musculus [3]): 21.2
Weight change (Mus musculus [4]): 0.1
T/C (L1210 [5]): 9
T/C (L1210 [6]): 9
ILS at 40 mg/kg (L1210 [7]): 67%
Weight change (Mus musculus [8]): 1
Weight change (Mus musculus [9]): 2.7
Range (L1210 [10]): 26
Average weight (Mus musculus [11]): 22.1
Average weight (Mus musculus [12]): 20.8
ILS at 20 mg/kg (L1210 [13]): 44%
T/C (L1210 [14]): 9
Range (L1210 [15]): 19

CC(C)COC(=O)CCC(NC(=O)c1cc(Cl)c(N(C)Cc2cnc3nc(N)nc(N)c3n2)c(Cl)c1)C(=O)OCC(C)C (stereo not given)
ILS at 80 mg/kg (L1210 [2]): 111%
Range (L1210 [16]): 23
Average weight (Mus musculus [3]): 21.4
Weight change (Mus musculus [4]): 0.1
T/C (L1210 [17]): 9
T/C (L1210 [5]): 9
ILS at 40 mg/kg (L1210 [7]): 44%
Weight change (Mus musculus [8]): 1.3
Average weight (Mus musculus [12]): 19.8
Range (L1210 [18]): 18

CCCOC(=O)CCC(NC(=O)c1ccc(N(C)Cc2cnc3nc(N)nc(N)c3n2)cc1)C(=O)OCCC (stereo not given)
Range (L1210 [19]): 16
Average weight (Mus musculus [3]): 21.1
ILS at 40 mg/kg (L1210 [20]): 100%
T/C (L1210 [21]): 19
Weight change (Mus musculus [22]): 2.1
Range (L1210 [23]): 17
T/C (L1210 [24]): 13
Average weight (Mus musculus [11]): 21.4
Weight change (Mus musculus [25]): 0.3
ILS at 20 mg/kg (L1210 [26]): 44%

CCCCOC(=O)CCC(NC(=O)c1ccc(N(C)Cc2cnc3nc(N)nc(N)c3n2)cc1)C(=O)OCCCC (stereo not given)
T/C (L1210 [27]): 9
Average weight (Mus musculus [28]): 24.9
Weight change (Mus musculus [29]): 4.2
Average weight (Mus musculus [30]): 25.3
Weight change (Mus musculus [31]): 4.1
ILS at 30 mg/kg (L1210 [32]): 66%
Range (L1210 [33]): 17
ILS (L1210 [34]): 77%
Weight change (Mus musculus [35]): 5.1
Average weight (Mus musculus [36]): 26.1
Range (L1210 [37]): 24
Range (L1210 [38]): 20
ILS at 60 mg/kg (L1210 [39]): 88%

CN(Cc1cnc2nc(N)nc(N)c2n1)c1ccc(C(=O)N[C@@H](CCC(=O)O)C(=O)O)cc1 [METHOTREXATE]
Range (L1210 [40]): 23
Weight change (Mus musculus [29]): 2.1
ILS (L1210 [41]): 88%
Weight change (Mus musculus [31]): 0.6
T/C (L1210 [42]): 9
Weight change (Mus musculus [35]): 1.3
Range (L1210 [43]): 22
Range (L1210 [44]): 28
T/C (L1210 [14]): 9
ILS (L1210 [45]): 100%
T/C (L1210 [46]): 9
ILS (L1210 [47]): 77%
